Where a SMILES comes first, the peptide text is derived from it. Bridges are numbered along the chain shown (N, C = ends). The star is where a group is joined. DOTA = O=C(O)CN1CCN(CC(=O)O)CCN(CC(=O)*)CCN(CC(=O)O)CC1; AEEA = NCCOCCOCC(=O)O
Experiments:
[1] = test system: Staphylococcus aureus induced osteomyelitis (OM) lesions; assay: Static PET/CT tracer uptake in S. aureus induced osteomyelitis lesions, juvenile pig model; details: for Standard uptake values (SUV) in OM lesions: static whole-body PET/CT about 1 h after i.v. tracer injection, day 6-7 after S. aureus S54F9 inoculation
Excerpt: (§1) Fifteen domestic pigs, all clinically healthy, specific pathogen-free Danish Landrace Yorkshire cross-bred female pigs aged 8–9 weeks weighing 18.3–24.5 kg, were purchased from local commercial pig farmers. After at least one week of acclimatization, the pigs fasted over-night. Then they were premedicated with s-ketamine (Pfizer, Ballerup, Denmark) and midazolam (B. Braun Medical, Frederiksberg, Denmark) intramuscularly and anesthetized with propofol (B. Braun Medical, Frederiksberg, Denmark) intravenously. Finally, they were inoculated with a well-characterized porcine strain of S. aureus S54F9 (approximately 10,000 CFU/kg body weight) into the femoral artery of the right hind limb to induce OM in that limb, as described elsewhere. […] The pigs were all treated with 30–45 µg/kg buprenorphine (Indivior, Berkshire, United Kingdom) intramuscularly thrice daily from the time before inoculation and until scanning at day 6 and 7 after inoculation. After scanning, pigs were euthanized with an overdose of pentobarbitone (Scan Vet Animal Health, Fredensborg, Denmark) while still under anesthesia. Humane endpoints were: anorexia for more than 24 h, superficial respiration, the inability to stand up, or signs of systemic infection. […] The environment was characterized by a room temperature of 20 °C, relative humidity of 51–55%, 12 h in light/12 h in dark cycles, an exchange of air at least eight times per hour. Pigs were fasted overnight before anesthesia.
(§2) Osteomyelitis was verified by CT imaging, necropsy, histology, and/or bacterial cultivation.
(§3) The average injected activity was a median of 760 MBq (range 348–848 MBq) of [^68Ga]Ga-DOTA-K-A9, corresponding to ~17–46 MBq/kg and median 475 MBq (range 65–500 MBq) of [^68Ga]Ga-DOTA-GSGK-A11, corresponding to ~3–23 MBq/kg. PET was performed median ~60 min (60–61min) after injection of [^68Ga]Ga-DOTA-K-A9 (pigs 4–6, Table 1) and ~62 min (62–62 min) after injection of [^68Ga]Ga-DOTA-GSGK-A11 (pigs 7–8, Table 1) in the jugular vein.
(§4) Fluoride-18 was produced via the ^18O (p,n) ^18F nuclear reaction using a cyclotron. The target content was passed through a QMA-light Sep-Pak (Waters, Hedehusene, Denmark) to trap F-18. The solution was washed with 10 mL sterile water for injection (10 mL) to remove any residual [^18O]H2O and then dried with an argon stream. [^18F]NaF was set free by eluting the QMA Sep-Pak with 10 mL NaHCO3 and 10–20 mL air into the product vial. The average injected activity was as median 184 MBq (range 165–196 MBq), corresponding to ~8–10 MBq/kg. The PET was performed ~57 min (33–78 min) after injection of [^18F]NaF (pigs 9–13, Table 1).
(§5) The average injected activity was median 117 MBq (range 109–120 MBq), corresponding to ~5–6 MBq/kg.
(§6) The average injected activity was as median 178 MBq (range 126–253 MBq), corresponding to ~8–12 MBq/kg. The PET was performed ~72 min (60–126 min, early scan) and 139 min (118–186 min, late scan) after injection of [^68Ga]Ga-DOTA-Siglec-9 (pigs 1–3 and 12–15, Table 1).
(§7) ^18F were produced at the PET Center Aarhus using either a PETtrace 800 series cyclotron (GE Healthcare, Uppsala, Sweden) or a Cyclone 18/18 cyclotron (IBA, Louvain La Neuve, Belgium). [^18F]FDG was produced by a standard procedure applying a GE Healthcare MX Tracerlab synthesizer, Mx cassettes supplied by Rotem Industries (Arava, Israel), and chemical kits supplied by ABX GmbH (Radeberg, Germany). […] The median injected activity was 125 MBq (range 94–497 MBq), corresponding to ~5–24 MBq/kg. The PET was performed ~61 min (50–76 min) after injection of [^18F]FDG (pigs 1–15, Table 1).
(§8) The pigs were scanned at locations; Aalborg and Aarhus PET Centers. […] They were in propofol anesthesia and mechanically ventilated throughout the scan. Reflexes, pulse, oxygen saturation, and body temperature were monitored.

[2] = test system: S. aureus inoculation abscess / soft tissue infection; assay: PET uptake in infected soft tissue (inguinal inoculation abscess, lymph node) of pigs
Excerpt: as §1, §6, §7, §8

[3] = Whole-body PET biodistribution and excretion of tracers in pigs (MIPs); assay type: in vivo, pig
Excerpt: Reflexes, pulse, oxygen saturation, and body temperature were monitored. […] In the present study, only the whole-body static PET/CT scans are presented.

[4] = Static PET/CT tracer uptake in S. aureus induced osteomyelitis lesions, juvenile pig model; details: pig, in vivo, iv, Standard uptake values (SUV) in OM lesions
Excerpt: as §1, §2, §3, §4, §5, §6, §7, §8

[5] = test system: vascular adhesion protein 1, VAP-1; details: cited from earlier work
Excerpt: The PET tracer [^68Ga]Ga-DOTA-Siglec-9 binds to a protein involved in leukocyte extravasations (vascular adhesion protein 1, VAP-1). Only recently, we have analyzed the dynamic data. […] However, the distribution volume for the uptake of soft tissue infections was elevated, concluding the tracer has a role for soft tissue infections ...

osteomyelitis lesions = details: pigs; cited from earlier work
Excerpt: We have previously used ^99mTc-label […] ([^99mTc]Tc-DPD) to examine bone remodeling in pigs. […] We, therefore, moved on to use [^18F]NaF in the present study because [^18F]NaF though acting through similar uptake mechanisms as [^99mTc]Tc-DPD, [^18F]NaF is supposed to have a two-fold higher uptake in bones and a better sensitivity for metastatic osteoblastic metastases.

## OC[C@H]1OC(O)[C@H]([18F])[C@@H](O)[C@@H]1O (stereo partly drawn) [[^18F]FDG, [^18F]-fluorodeoxyglucose]
[1]; pig 1, 3 lesions
  Standard uptake values (SUV) in OM lesions: 4–7.3
[1]; pig 2, 4 lesions
  Standard uptake values (SUV) in OM lesions: 2.3–5.9
[1]; pig 3, 5 lesions
  Standard uptake values (SUV) in OM lesions: 2.9–4.5
[1]; pig 4, 2 lesions
  Standard uptake values (SUV) in OM lesions: 10.5–16.3
[1]; pig 5, 3 lesions
  Standard uptake values (SUV) in OM lesions: 3.4–9
[1]; pig 6, 4 lesions
  Standard uptake values (SUV) in OM lesions: 4–9.2
[1]; pig 7, 3 lesions
  Standard uptake values (SUV) in OM lesions: 3–6.4
[1]; pig 8, 2 lesions
  Standard uptake values (SUV) in OM lesions: 2.4–8
[1]; pig 9, 4 lesions
  Standard uptake values (SUV) in OM lesions: 5.4–5.9
[1]; pig 10, 3 lesions
  Standard uptake values (SUV) in OM lesions: 4.4–5.1
[1]; pig 11, 5 lesions
  Standard uptake values (SUV) in OM lesions: 1–3.9
[1]; pig 12, 1 lesion
  Standard uptake values (SUV) in OM lesions: 6.1
[1]; pig 13, 2 lesions
  Standard uptake values (SUV) in OM lesions: 7.8–10.1
[1]; pig 14, 3 lesions
  Standard uptake values (SUV) in OM lesions: 4–7.8
[1]; pig 15, 1 lesion
  Standard uptake values (SUV) in OM lesions: 3.6
[1]; static PET ~61 min after injection, pigs 1-15
  Number of OM lesions in which the tracer accumulated distinguishably: 45 of the 45
[2]; pig 12
  Uptake in hyperplasic medial iliacus lymph node of the infected side compared to the lymph node in the non-infected left hind limb: increased
[2]; pig 12, static images acquired after 60 min, compared to 10-30 min
  Change of activity in the margin of the abscess in the static images: increased slightly

## [18F-].[Na+] [[^18F]NaF]
[3]; pigs, whole-body PET, maximum intensity projections
  Route of excretion: excreted by the kidneys
[3]; pigs, whole-body PET/CT
  Distribution of the tracer in the body outside OM lesions: distributed to the growth zones of the bones
[1]; pig 9, 4 lesions
  Standard uptake values (SUV) in OM lesions: 9.2–13.6
[1]; pig 10, 3 lesions
  Standard uptake values (SUV) in OM lesions: 15.2–17
[1]; pig 11, 5 lesions
  Standard uptake values (SUV) in OM lesions: 5.7–19.2
[1]; pig 12, 1 lesion
  Standard uptake values (SUV) in OM lesions: 19.8
[1]; pig 13, 2 lesions
  Standard uptake values (SUV) in OM lesions: 7.8–17.6
[1]; static PET, K-A9 9 lesions, GSGK-A11 5, NaF 15, ubiquicidin 12, Siglec-9 19 lesions (early and late images)
  Tracer accumulation in porcine OM lesions (in words): no accumulation

## CC(C)C[C@@H]1NC(=O)CNC(=O)[C@H](CCCNC(=N)N)NC(=O)[C@H](Cc2c[nH]c3ccccc23)NC(=O)[C@H](CO)NC(=O)[C@H](CC(C)C)NC(=O)[C@H](CO)NC(=O)[C@H](CC(C)C)NC(=O)[C@H](CCCNC(=N)N)NC(=O)[C@H](C)NC(=O)[C@@H](NC(=O)COCCOCCNC(=O)CN2CCN(CC(=O)O)CCN(CC(=O)O)CCN(CC(=O)O)CC2)CSSC[C@@H](C(=O)N2CCC[C@H]2C(=O)N[C@@H](CO)C(=O)N[C@@H](CCCCN)C(N)=O)NC(=O)[C@H](CC(C)C)NC(=O)[C@H]([C@@H](C)O)NC1=O [[^68Ga]Ga-DOTA-Siglec-9, metal not drawn] ({DOTA-AEEA}-CARLSLSWRGLTLCPSK-NH2; disulfide 1-14; N-terminus and C-terminus assumed)
[3]; pig, in vivo
  Distribution of the tracer in the body outside OM lesions: accumulated in dorsocaudal parts of both lungs
[4]
  SUV: 1.3 SUV
[1]; pig, in vivo
  Tracer accumulation in porcine OM lesions (in words): no tracer activity
[2]; pig 12, images acquired 10 to 30 min after tracer injection
  Uptake in the margin of an inguinal abscess adjacent to the S. aureus inoculation site: marked
[2]; pig, in vivo
  Change of activity in the margin of the abscess in the static images: decreased
[5]; pig, in vivo
  Distribution volume for the uptake of soft tissue infections: elevated
  Metabolism of the tracer in vivo: metabolized very quickly
  Uptake in OM: no increased
[5]; pigs, modeled with the rev2TCM (4 k-parameters)
  Kinetics of uptake: reversible kinetics

## ^99mTc-label methylene diphosphate [[^99mTc]Tc-DPD]
Osteomyelitis lesions
  Tracer uptake in the osteomyelitis lesions: did not observe any tracer uptake

Source: article PMC7570567, “Attempts to Target Staphylococcus aureus Induced Osteomyelitis Bone Lesions in a Juvenile Pig Model by Using Radiotracers” (Molecules, 2020)
